Tests used:
[1] = test system: hmNPCs; experiment: Protein content of cell extracts (Bradford method); type: cell-based; conditions: Homo sapiens, 336 h, 2 weeks of expansion, read-out: protein yield compared to untreated samples
Experimental: (§1) To determine long-term proliferation, hmNPCs were plated and expanded for 2 passages with or without addition of various agents (see below) to the custom expansion media containing the growth factors EGF and FGF2. Different fetal midbrain tissues were included in this study. At the end of the proliferation period, differentiation of hmNPCs was induced via replacement of expansion media with mitogen-free media containing 1% FCS, 5 µM forskoline (Sigma-Aldrich Chemie GmbH Munich, Germany), and 100 pg/ml IL-1β (Sigma). The differentiation and expansion media were supplemented with different drugs as appropriate. Prior to immunocytochemistry or protein extraction, hmNPCs were allowed to differentiate for 1 week. To determine short-term proliferation via Ki67 immunostaining, the cells were seeded into 24-well plates (70,000 cells/well) and left overnight to rest. P2 receptor agonists (ATP, UTP, ATP + UTP, ADP, ADPβS) were supplied daily for 5 consecutive days. Ki67/nestin double-positive cells were counted in 8 randomly selected fields of nucleotide-treated or untreated samples. For the assessment of MAPK phosphorylation the cells were kept free of mitogens for 2 d prior to addition of the MEK-inhibitor in expansion media. In addition, the MEK-inhibitor was added during the differentiation period 15 min before UTP administration.
(§2) In order to prepare protein extracts, hmNPCs were collected, washed with ice-cold PBS and lysed in buffer [10 mM HEPES-KOH (pH 7.9), 10 mM KCI, 1.5 mM MgCl2, 0.1% NP-40], supplemented with protease inhibitor cocktail (Roche). After a brief centrifugation at 4°C/10 000×g, protein concentrations and protein yield from extracts were determined using the Bradford method (Bio-Rad, Hercules, CA, USA). To preserve the phosphorylation state of proteins, extracts for the MAPK experiment were obtained using the PhosphoSafe™ extraction reagent containing phophatase inhibitors (Novagen). […] The chemiluminescence was quantified using the AIDA, two-dimensional densitometry software (Raytest lsotopenmeb, Straubenhardt, Germany). […]

[2] = test system: hmNPCs; experiment: Western blot of proliferation marker PCNA and survival marker Bcl-2; type: cell-based, human; conditions: 2 weeks
Experimental: as §1, §2

[3] = test system: hmNPCs; experiment: Short-term proliferation: Ki67/nestin immunostaining; type: cell-based, human; conditions: Homo sapiens, 120 h, 1 µM, 5 subsequent days
Experimental: as §1, with “hmNPCs” left out, “μM” for “µM”, “administration. […] Cover-slips were mounted onto glass slides and examined under a fluorescence microscope (Zeiss Axiovert 200). Acquisition of the cells was performed using the Image-analysis software AxioVision 4 (Carl Zeiss AG, Jena, Germany). The following primary antibodies were used for immunofluorescence: rabbit polyclonal anti-β-tubulin III (anti-Tuj1) antibody, rabbit polyclonal anti-tyrosine hydroxylase antibody , mouse monoclonal anti-nestin antibody (Pharmingen, San Diego, CA, USA), rabbit polyclonal anti-Ki67 antigen antibody (Novocastra Laboratories Ltd, Newcastle upon Tyne, UK). Estimation of the TH-positive cell numbers was performed by counting of cells among approximately 1000 differentiated cells in total within 6 randomly selected fields.” for “administration.”

`O=c1ccn([C@@H]2O[C@H](COP(=O)(O)OP(=O)(O)OP(=O)(O)O)[C@@H](O)[C@H]2O)c(=O)[nH]1` [UTP, uridine 5'-triphosphate] gave an activity at 1 µM ([1]; 1 µM) of 165%, an activity at 10 µM ([1]; 10 µM) of 125% and an activity at 100 µM ([1]; 100 µM) of 113%. For the same molecule, the activity at 1 µM ([2]; Homo sapiens, 336 h, 1 µM, read-out: expression of the proliferation marker PCNA compared to control cells) was 330 ± 23%, the “expression of the survival marker Bcl-2” value ([2]; increasing UTP concentrations) was “did not significantly change” and the activity at 1 µM ([3]; read-out: NPCs double-immunoreactive for Ki67 and nestin) was 193 ± 3%. The activity at 1 µM ([3]; read-out: cells immunoreactive for nestin alone) was 188 ± 2%.
